In patent US8192962B2, “Processes for detecting toxic substances” (Daikin Industries, Ltd., priority 2001, dated 2012):

Tested on: Genes belonging to other category
Assay: DNA chip mRNA expression in yeast, genes belonging to other category (Table 9)
Type: cell-based, Saccharomyces cerevisiae S288C
Procedure, shortened: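 First, S288C yeast grown in YPD at 25° C. are dosed in log phase with one toxicant (growth-inhibiting, not lethal) for 2 h. Next, total RNA is extracted and poly(A) mRNA isolated and reverse-transcribed with Cy3/Cy5-dUTP. Finally, whole-genome chip fluorescence is read relative to unexposed cells.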

CCCCC[C@H](O)CC(=O)CCc1ccc(O)c(OC)c1 [(13), gingerol]
The level of expressed mRNA in the presence of chemical substance/The level of expressed mRNA in the absence of chemical substance (yeast gene YAL007C): 2.0
The level of expressed mRNA in the presence of chemical substance/The level of expressed mRNA in the absence of chemical substance (yeast gene YBL005W-A): 2.9
The level of expressed mRNA in the presence of chemical substance/The level of expressed mRNA in the absence of chemical substance (yeast gene YBL041W): 2.6
The level of expressed mRNA in the presence of chemical substance/The level of expressed mRNA in the absence of chemical substance (yeast gene YBL043W): 1.8
The level of expressed mRNA in the presence of chemical substance/The level of expressed mRNA in the absence of chemical substance (yeast gene YBR109C): 2.0
The level of expressed mRNA in the presence of chemical substance/The level of expressed mRNA in the absence of chemical substance (yeast gene YBR201W): 1.9
The level of expressed mRNA in the presence of chemical substance/The level of expressed mRNA in the absence of chemical substance (yeast gene YCL020W): 3.0
The level of expressed mRNA in the presence of chemical substance/The level of expressed mRNA in the absence of chemical substance (yeast gene YCL027W): 1.1
The level of expressed mRNA in the presence of chemical substance/The level of expressed mRNA in the absence of chemical substance (yeast gene YCR004C): 1.3
The level of expressed mRNA in the presence of chemical substance/The level of expressed mRNA in the absence of chemical substance (yeast gene YCR071C): 1.3
The level of expressed mRNA in the presence of chemical substance/The level of expressed mRNA in the absence of chemical substance (yeast gene YCR088W): 1.9
The level of expressed mRNA in the presence of chemical substance/The level of expressed mRNA in the absence of chemical substance (yeast gene YDL008W): 2.0
The level of expressed mRNA in the presence of chemical substance/The level of expressed mRNA in the absence of chemical substance (yeast gene YDL097C): 4.0
The level of expressed mRNA in the presence of chemical substance/The level of expressed mRNA in the absence of chemical substance (yeast gene YDL126C): 4.3
The level of expressed mRNA in the presence of chemical substance/The level of expressed mRNA in the absence of chemical substance (yeast gene YDL212W): 0.5
The level of expressed mRNA in the presence of chemical substance/The level of expressed mRNA in the absence of chemical substance (yeast gene YDL238C): 2.0
The level of expressed mRNA in the presence of chemical substance/The level of expressed mRNA in the absence of chemical substance (yeast gene YDR055W): 3.1
The level of expressed mRNA in the presence of chemical substance/The level of expressed mRNA in the absence of chemical substance (yeast gene YDR084C): 1.0
The level of expressed mRNA in the presence of chemical substance/The level of expressed mRNA in the absence of chemical substance (yeast gene YDR085C): 1.1
The level of expressed mRNA in the presence of chemical substance/The level of expressed mRNA in the absence of chemical substance (yeast gene YDR104C): 1.6
The level of expressed mRNA in the presence of chemical substance/The level of expressed mRNA in the absence of chemical substance (yeast gene YDR115W): 1.1
The level of expressed mRNA in the presence of chemical substance/The level of expressed mRNA in the absence of chemical substance (yeast gene YDR315C): 1.6
The level of expressed mRNA in the presence of chemical substance/The level of expressed mRNA in the absence of chemical substance (yeast gene YDR358W): 3.2
The level of expressed mRNA in the presence of chemical substance/The level of expressed mRNA in the absence of chemical substance (yeast gene YDR388W): 1.7
The level of expressed mRNA in the presence of chemical substance/The level of expressed mRNA in the absence of chemical substance (yeast gene YDR481C): 1.5
The level of expressed mRNA in the presence of chemical substance/The level of expressed mRNA in the absence of chemical substance (yeast gene YDR518W): 1.8
The level of expressed mRNA in the presence of chemical substance/The level of expressed mRNA in the absence of chemical substance (yeast gene YEL042W): 0.4
The level of expressed mRNA in the presence of chemical substance/The level of expressed mRNA in the absence of chemical substance (yeast gene YEL066W): 1.6
The level of expressed mRNA in the presence of chemical substance/The level of expressed mRNA in the absence of chemical substance (yeast gene YER012W): 2.9
The level of expressed mRNA in the presence of chemical substance/The level of expressed mRNA in the absence of chemical substance (yeast gene YER130C): 1.6
The level of expressed mRNA in the presence of chemical substance/The level of expressed mRNA in the absence of chemical substance (yeast gene YER136W): 1.3
The level of expressed mRNA in the presence of chemical substance/The level of expressed mRNA in the absence of chemical substance (yeast gene YFL022C): 0.6
The level of expressed mRNA in the presence of chemical substance/The level of expressed mRNA in the absence of chemical substance (yeast gene YFL043C): 1.5
The level of expressed mRNA in the presence of chemical substance/The level of expressed mRNA in the absence of chemical substance (yeast gene YGL158W): 1.0
The level of expressed mRNA in the presence of chemical substance/The level of expressed mRNA in the absence of chemical substance (yeast gene YGL229C): 1.7
The level of expressed mRNA in the presence of chemical substance/The level of expressed mRNA in the absence of chemical substance (yeast gene YGR136W): 1.7
The level of expressed mRNA in the presence of chemical substance/The level of expressed mRNA in the absence of chemical substance (yeast gene YGR189C): 1.2
The level of expressed mRNA in the presence of chemical substance/The level of expressed mRNA in the absence of chemical substance (yeast gene YGR257C): 2.0
The level of expressed mRNA in the presence of chemical substance/The level of expressed mRNA in the absence of chemical substance (yeast gene YHR004C): 1.1
The level of expressed mRNA in the presence of chemical substance/The level of expressed mRNA in the absence of chemical substance (yeast gene YHR071W): 2.3
The level of expressed mRNA in the presence of chemical substance/The level of expressed mRNA in the absence of chemical substance (yeast gene YHR142W): 1.2
The level of expressed mRNA in the presence of chemical substance/The level of expressed mRNA in the absence of chemical substance (yeast gene YIL123W): 0.4
The level of expressed mRNA in the presence of chemical substance/The level of expressed mRNA in the absence of chemical substance (yeast gene YJL073W): 1.6
The level of expressed mRNA in the presence of chemical substance/The level of expressed mRNA in the absence of chemical substance (yeast gene YJL089W): 1.8
The level of expressed mRNA in the presence of chemical substance/The level of expressed mRNA in the absence of chemical substance (yeast gene YJR099W): 1.5
The level of expressed mRNA in the presence of chemical substance/The level of expressed mRNA in the absence of chemical substance (yeast gene YJR122W): 1.3
The level of expressed mRNA in the presence of chemical substance/The level of expressed mRNA in the absence of chemical substance (yeast gene YJR125C): 1.5
The level of expressed mRNA in the presence of chemical substance/The level of expressed mRNA in the absence of chemical substance (yeast gene YKL008C): 1.7
The level of expressed mRNA in the presence of chemical substance/The level of expressed mRNA in the absence of chemical substance (yeast gene YKL013C): 1.3
The level of expressed mRNA in the presence of chemical substance/The level of expressed mRNA in the absence of chemical substance (yeast gene YKL039W): 1.9
